Measured values reported in article PMC3395220 (Journal of Medicinal Chemistry, 2012).

Tests used:
[1] = tested on: COLO-205 (colon), A549 (non-small cell lung) and BXCP3 (pancreas); assay: cells; assay type: cell-based; conditions: 72 h, read-out: average GI50 (50% of growth inhibition)
[2] = Tolerability during xenograft treatment; assay type: in vivo, athymic nu/nu mice; conditions: iv q2dx10 10 mg/Kg and q3dx10 20 mg/Kg, colon and melanoma models
OVCAR-5 = assay type: cell-based, human; conditions: 10^Δ2-x, relative to compound 2
UO-31 = assay type: cell-based, human; conditions: 10^Δ2-x, relative to compound 2
SK-MEL-5 = assay type: cell-based, human; conditions: 10^Δ2-x, relative to compound 2
TK-10 = assay type: cell-based, human; conditions: 10^Δ2-x, relative to compound 2
[3] = CD-1, mouse, in vivo
U251 = assay type: cell-based, human; conditions: 10^Δ2-x, relative to compound 2
MDA-MB-231/ATCC = assay type: cell-based, human; conditions: 10^Δ2-x, relative to compound 2
MDA-MB-468 = assay type: cell-based, human; conditions: 10^Δ2-x, relative to compound 2
SN12C = assay type: cell-based, human; conditions: 10^Δ2-x, relative to compound 2
786-0 = assay type: cell-based, human; conditions: 10^Δ2-x, relative to compound 2
ACHN = assay type: cell-based, human; conditions: 10^Δ2-x, relative to compound 2
SW-620 = assay type: cell-based, human; conditions: 10^Δ2-x, relative to compound 2
M14 = assay type: cell-based, human; conditions: 10^Δ2-x, relative to compound 2
SK-MEL2 = assay type: cell-based, human; conditions: 10^Δ2-x, relative to compound 2

With `CO[C@@H]([C@@H]1Cc2cc3cc(O[C@H]4C[C@@H](O[C@H]5C[C@@H](O)[C@H](O)[C@@H](C)O5)[C@H](O)[C@@H](C)O4)c(C)c(O)c3c(O)c2C(=O)[C@H]1O[C@H]1C[C@@H](O[C@H]2C[C@@H](O[C@H]3C[C@H](O)[C@H](O)[C@@H](C)O3)[C@H](O)[C@@H](C)O2)[C@H](O)[C@@H](C)O1)[C@@H](O)C(C)=O` [Compound 9, demycarosyl-3D-β-D-digitoxosyl-mithramycin SK] the GI50 [1] was 300 to 1300 nM, the “tolerability in xenograft-bearing mice” value [2] was “well tolerated and no signs of toxicity or deaths” and the activity improvement factor (OVCAR-5) was 1.97. It also gave an activity improvement factor (UO-31) of 2.40, an activity improvement factor (SK-MEL-5) of 1.62 and an activity improvement factor (TK-10) of 2.45. For the same compound, the “fold less toxic than compound 3” value [3] was “about 2 fold”, the activity improvement factor (U251) was 1.26 and the activity improvement factor (MDA-MB-231/ATCC) was 2.75. For the same compound, the activity improvement factor (MDA-MB-468) was 1.48, the activity improvement factor (SN12C) was 1.70 and the activity improvement factor (786-0) was 1.88. For the same compound, the activity improvement factor (ACHN) was 4.47, the activity improvement factor (SW-620) was 1.30 and the activity improvement factor (M14) was 2.19. The activity improvement factor (SK-MEL2) was 1.23.
